Reference: patent US9241488B2, “Azole derivative, method for producing azole derivative, and intermediate compound” (KUREHA CORPORATION, priority 2011, dated 2016)
Like-named read-outs stand apart in the source and are kept apart here.

Tests used:
[1] = system: Wheat fusarium blight (Fusarium graminearum); format: cell-based
[2] = system: Cucumber fusarium wilt (Fusarium oxysporum); assay: Anti-bacterial effect on various microorganisms (plate medium), F.c; format: cell-based
[3] = system: Gray mold (Botritis cinerea); assay: Anti-bacterial effect on various microorganisms (plate medium), B.c; format: cell-based
[4] = system: Alternaria blotch (Alternaria alternata); assay: Anti-bacterial effect on various microorganisms (plate medium), A.m; format: cell-based
[5] = system: Wheat eye spot (Pseudocercoporella herpotrichoides); assay: Anti-bacterial effect on various microorganisms (plate medium), P.h; format: cell-based
[6] = system: Rice blast (Pyricularia oryzae); format: cell-based
[7] = system: wheat-brown-rust-causing microorganisms; assay: Controlling effect on wheat brown rust (spray, pot test); format: in vivo, Puccinia recondita; settings: 1 mg/L sprayed at 1,000 L/ha, wheat NORIN No. 61, 9 to 14 days after inoculation
Description: Onto a wheat plant (cultivar: NORIN No. 61) grown to the two-leaf stage with use of a square plastic pot (6 cm×6 cm), a wettable formulation such as Formulation Example 1 which was diluted and suspended in water at a concentration of 1 mg/L was sprayed at a rate of 1,000 L/ha. The sprayed leaves were air-dried, and inoculated with spore suspension of wheat-brown-rust-causing microorganisms (adjusted at 200 spores/vision, […] was added at 60 ppm) by spraying, and kept at 25° C. and a high humidity for 48 hours. Thereafter, the plant was kept in a greenhouse. Nine to fourteen days after inoculation, the wheat brown rust lesion degree was evaluated. The protective value was calculated by the following equation. Protective value (%)=(1-mean lesion degree in sprayed plot/mean lesion degree in unsprayed plot)×100 [table] [table]

[8] = system: wheat leaf blight-causing microorganisms; assay: Anti-bacterial effect on wheat leaf blight-causing microorganisms (PDA plate, mycelial growth inhibition); format: cell-based, Septoria tritici; settings: 1.25 mg/L in PDA plate medium, 25° C., 14 days
Description: In Test Examples, an anti-bacterial effect of a compound in accordance with the present invention on the wheat leaf blight-causing microorganisms was tested, and was compared with the anti-bacterial effect of a comparative compound (1).
A dimethyl sulfoxide solution (0.6 ml) containing a compound in accordance with the present invention was added to a PDA medium (potato dextrose agar medium) (60 ml) having about 60° C., and the resultant mixture was mixed thoroughly in a 100-ml conical flask. The mixture was poured into a dish, and was solidified. […]
On the other hand, a subject microorganism previously cultured on a plate medium was cut out with use of a cork borer whose diameter was 4 mm, and the wheat leaf blight-causing microorganism on the plate medium thus cut out was inoculated to the chemical-containing plate medium described above. After such inoculation, the chemical-containing plate medium was incubated at 25° C. for 14 days, and then diameters of its flora were measured. A % mycelial growth inhibition was calculated with use of the formula. R=100(dc−dt)/dc (where R=% mycelial extension inhibition, dc=flora diameter in untreated plate, dt=flora diameter in treated plate)
The results obtained as described above were evaluated on a five-point scale according to the following criteria.
• 5: % Mycerial growth inhibition of 80% or higher • 4: % Mycerial growth inhibition of less than 80 to 60% or higher • 3: % Mycerial growth inhibition of less than 60 to 40% or higher • 2: % Mycerial growth inhibition of less than 40 to 20% or higher • 1: % Mycerial growth inhibition of less than 20%

[9] = system: Rice bacterial seeding blight (Rhizopus oryzae); assay: Anti-bacterial effect on various microorganisms (plate medium), R.o; format: cell-based
[10] = system: Wheat Septoria nodorum blotch microorganism (Phaeosphaeria nodorum); assay: Anti-bacterial effect on various microorganisms (plate medium), P.n; format: cell-based
[11] = system: Rice bakanae disease (Giberella fujikuroi); assay: Anti-bacterial effect on various microorganisms (plate medium), G.f; format: cell-based
[12] = system: Sclerotinia rot (Sclerotinia sclerotiorum); assay: Anti-bacterial effect on various microorganisms (plate medium), S.s; format: cell-based
[13] = system: Wheat pink snow mold (Microdochium nivale); assay: Anti-bacterial effect on various microorganisms (plate medium), M.n; format: cell-based
[14] = system: Barley loose smut (Ustilago nuda); assay: Anti-bacterial effect on various microorganisms (plate medium), U.n; format: cell-based
[15] = system: Barley leaf blotch (Rhynchosporium secalis); assay: Anti-bacterial effect on various microorganisms (plate medium), R. sec; format: cell-based

SMILES	Growth inhibition grade F.g ([1]; 1.25 mg/L)	Growth inhibition grade F.g ([1]; 5 mg/L)	Growth inhibition grade F.c ([2]; 1.25 mg/L)	Growth inhibition grade F.c ([2]; 5 mg/L)	Growth inhibition grade B.c ([3]; 1.25 mg/L)	Growth inhibition grade B.c ([3]; 5 mg/L)	Growth inhibition grade A.m ([4]; 1.25 mg/L)	Growth inhibition grade A.m ([4]; 5 mg/L)	Growth inhibition grade P.h ([5]; 1.25 mg/L)	Growth inhibition grade P.h ([5]; 5 mg/L)	Growth inhibition grade P.o ([6]; 1.25 mg/L)	Growth inhibition grade P.o ([6]; 5 mg/L)	Protective value [7]	Growth inhibition grade [8]	Growth inhibition grade R.o ([9]; 1.25 mg/L)	Growth inhibition grade R.o ([9]; 5 mg/L)	Growth inhibition grade P.n ([10]; 1.25 mg/L)	Growth inhibition grade P.n ([10]; 5 mg/L)	Growth inhibition grade M.n ([13]; 1.25 mg/L)	Growth inhibition grade M.n ([13]; 5 mg/L)	also measured
COC[C@]1(CBr)CC[C@@H](Cc2ccccc2)[C@]1(O)Cn1cncn1 (racemic) [Compound I-203, (1RS,2RS,5SR)-5-benzyl-2-bromomethyl-2-methoxymethyl-1H-[1,2,4]triazole-1-ylmethylcyclopentanol]	5 (% Mycerial growth inhibition of 80% or higher)	5 (% Mycerial growth inhibition of 80% or higher)	5 (% Mycerial growth inhibition of 80% or higher)	5 (% Mycerial growth inhibition of 80% or higher)	5 (% Mycerial growth inhibition of 80% or higher)	5 (% Mycerial growth inhibition of 80% or higher)	4 (% Mycerial growth inhibition of less than 80 to 60% or higher)	5 (% Mycerial growth inhibition of 80% or higher)	4 (% Mycerial growth inhibition of less than 80 to 60% or higher)	5 (% Mycerial growth inhibition of 80% or higher)	5 (% Mycerial growth inhibition of 80% or higher)	5 (% Mycerial growth inhibition of 80% or higher)	4 (61 to 80)	4 (% Mycerial growth inhibition of less than 80 to 60% or higher)	4 (% Mycerial growth inhibition of less than 80 to 60% or higher)	5 (% Mycerial growth inhibition of 80% or higher)	4 (% Mycerial growth inhibition of less than 80 to 60% or higher)	5 (% Mycerial growth inhibition of 80% or higher)	5 (% Mycerial growth inhibition of 80% or higher)	5 (% Mycerial growth inhibition of 80% or higher)	Growth inhibition grade G.f ([11]; 1.25 mg/L): 5 (% Mycerial growth inhibition of 80% or higher); Growth inhibition grade G.f ([11]; 5 mg/L): 5 (% Mycerial growth inhibition of 80% or higher); Growth inhibition grade S.s ([12]; 1.25 mg/L): 5 (% Mycerial growth inhibition of 80% or higher); Growth inhibition grade S.s ([12]; 5 mg/L): 5 (% Mycerial growth inhibition of 80% or higher); Growth inhibition grade U.n ([14]; 1.25 mg/L): 5 (% Mycerial growth inhibition of 80% or higher); Growth inhibition grade U.n ([14]; 5 mg/L): 5 (% Mycerial growth inhibition of 80% or higher); Growth inhibition grade R. sec ([15]; 1.25 mg/L): 5 (% Mycerial growth inhibition of 80% or higher); Growth inhibition grade R. sec ([15]; 5 mg/L): 5 (% Mycerial growth inhibition of 80% or higher)
COC[C@]1(CCl)CC[C@H](Cc2ccc(Cl)cc2)[C@]1(O)Cn1cncn1 (racemic) [Compound I-16b, (1RS,2RS,5RS)-5-(4-chlorobenzyl)-2-chloromethyl-2-methoxymethyl-1H-[1,2,4]triazole-1-ylmethylcyclopentanol]															5 (% Mycerial growth inhibition of 80% or higher)	5 (% Mycerial growth inhibition of 80% or higher)			3 (% Mycerial growth inhibition of less than 60 to 40% or higher)	5 (% Mycerial growth inhibition of 80% or higher)	
CCOC[C@]1(CCl)CC[C@@H](Cc2ccccc2)[C@]1(O)Cn1cncn1 (racemic) [Compound I-234, (1RS,2RS,5SR)-5-benzyl-2-chloromethyl-2-ethoxymethyl-1H-[1,2,4]triazole-1-ylmethylcyclopentanol]	5 (% Mycerial growth inhibition of 80% or higher)	5 (% Mycerial growth inhibition of 80% or higher)	5 (% Mycerial growth inhibition of 80% or higher)	5 (% Mycerial growth inhibition of 80% or higher)	5 (% Mycerial growth inhibition of 80% or higher)	5 (% Mycerial growth inhibition of 80% or higher)	4 (% Mycerial growth inhibition of less than 80 to 60% or higher)	5 (% Mycerial growth inhibition of 80% or higher)	4 (% Mycerial growth inhibition of less than 80 to 60% or higher)	5 (% Mycerial growth inhibition of 80% or higher)	5 (% Mycerial growth inhibition of 80% or higher)	5 (% Mycerial growth inhibition of 80% or higher)	4 (61 to 80)	5 (% Mycerial growth inhibition of 80% or higher)	5 (% Mycerial growth inhibition of 80% or higher)	5 (% Mycerial growth inhibition of 80% or higher)	5 (% Mycerial growth inhibition of 80% or higher)	5 (% Mycerial growth inhibition of 80% or higher)	5 (% Mycerial growth inhibition of 80% or higher)	5 (% Mycerial growth inhibition of 80% or higher)	Growth inhibition grade G.f ([11]; 1.25 mg/L): 5 (% Mycerial growth inhibition of 80% or higher); Growth inhibition grade G.f ([11]; 5 mg/L): 5 (% Mycerial growth inhibition of 80% or higher); Growth inhibition grade S.s ([12]; 1.25 mg/L): 5 (% Mycerial growth inhibition of 80% or higher); Growth inhibition grade S.s ([12]; 5 mg/L): 5 (% Mycerial growth inhibition of 80% or higher); Growth inhibition grade U.n ([14]; 1.25 mg/L): 5 (% Mycerial growth inhibition of 80% or higher); Growth inhibition grade U.n ([14]; 5 mg/L): 5 (% Mycerial growth inhibition of 80% or higher); Growth inhibition grade R. sec ([15]; 1.25 mg/L): 5 (% Mycerial growth inhibition of 80% or higher); Growth inhibition grade R. sec ([15]; 5 mg/L): 5 (% Mycerial growth inhibition of 80% or higher)
